Measurements published in patent US20040044013A1, “1-dimercaptoalkylquinazolin-2,4(1h,3h)-diones as matrix metalloproteinase (mmp) inhibitors” (priority 2001, published 2004).

How the values were obtained:
Type in all cases: biochemical
MMP-9 = biological target: T1, MMP-9 (Homo sapiens, UniProt P14780); experiment: Quantitative fluorescence assay for matrix metalloproteinases, MMP-9
T1 construct: from tissue; host or cells: human buffy coat (leukocytes)
Description: Preparation of the Human Collagenase MMP-9
Native MMP-9 was obtained reproducibly and with good yield and purity from human Buffy Coat. For this purpose, Buffy Coat is brought to a final concentration of 0.4% using 10% (v/v) triton X-100, shaken on ice for 30 min. and then 1 vol. double binding buffer (40 mM Tris-HCl, pH 7.5, 10 mM CaCl2, 1 M NaCl, 0.2% (v/v) triton X-100) is added and shaking on ice is continued for another 30 min.
The solution is centrifuged off at 16,000 rpm on an SS-34 rotor at 4° C. for 15 min. and filtered on glass wool. The filtrate is batched with gelatin agarose equilibrated with binding buffer and shaken on ice for 1 hour.
The charged gelatin agarose is transferred to a column and rinsed in protein-free manner using at least 10 vol. binding buffer. The bound MMP-9 is eluted with 2 gel volumes binding buffer plus 5% (v/v) DMSO.
For an exchange of buffers and simultaneous separation of minor MMP-2 contaminations the eluate can be separated on sephadex G-75 by means of gel filtration. Buffer I (20 mM Tris-HCl, pH 7.5, 5 mM CaCl2, 100 mM NaCl, 0.1% (v/v) triton X-100) is used for this purpose. […]
(§1) Quantitative Fluorescence Assay for Matrix Metalloproteinases
(§2) The fluorescent group Mca is separated from the internal quencher Dpa by enzymatic cleavage of the synthetic substrate Mca-Pro-Leu-Gly-Leu-Dpa-Ala-Arg-NH2 using the respective collagenase. This is accompanied by a great increase in fluorescence in the measuring batch, which can be quantified using a fluorimeter (λex 328 nm, λem 393 nm) and proceeds linearly within the first few minutes. […] The proteolytic residual activity of pre-incubated batches of enzyme and inhibitor is measured, the substrate and enzyme concentrations having been kept constant and the inhibitor concentration having been varied. […]
(§3) 5 min. preliminary incubation of the enzyme-inhibitor mixture at room temperature while stirring start of the reaction with 10 μl substrate dissolved in DMSO recording of the time-sensitive fluorescence increase over a period of 2 min.

[1] = biological target: T2, catalytic domain of MMP-8 (Homo sapiens, UniProt P22894); experiment: Quantitative fluorescence assay for matrix metalloproteinases, MMP-8
T2 construct: instead of the whole enzyme only its enzymatically active catalytic domain was cloned into E. coli; made in house; host or cells: E. coli
From the text: Cloning and Expression of the Catalytic MMP-8 Domain
The catalytic MMP-8 domain was used as another test enzyme because it has a high degree of stability and is also available as an active enzyme and therefore needs not be activated, which is in consideration as one of the most frequent causes of error since the mercury compounds used for the activation often interfere with the test system and/or the enzyme and in this way can falsify the measuring results. The cloning strategy was directed towards the circumstance that instead of the whole enzyme only its enzymatically active catalytic domain was cloned into E. coli.
The cloning and expression of the recombinant catalytic MMP-8 domain was carried out in accordance with the information given by SCHNIERER et al. (Schnierer S., Kleine T., Gote T., Hillemann A., Knauper V., Tschesche H.: The recombinant catalytic domain of human neutrophil collagenase lacks type I collagen substrate specificity. Biochem Biophys Res Comm (1993), vol. 191, No. 2, 319-326).
as §1, §2, §3

MMP-2 = biological target: T3, MMP-2 (Homo sapiens, UniProt P08253); experiment: Quantitative fluorescence assay for matrix metalloproteinases, MMP-2
T3 construct: endogenous in cells; host or cells: cultured human dermal fibroblasts (secreted into culture supernatant)
T3 sequence (P08253 110-660): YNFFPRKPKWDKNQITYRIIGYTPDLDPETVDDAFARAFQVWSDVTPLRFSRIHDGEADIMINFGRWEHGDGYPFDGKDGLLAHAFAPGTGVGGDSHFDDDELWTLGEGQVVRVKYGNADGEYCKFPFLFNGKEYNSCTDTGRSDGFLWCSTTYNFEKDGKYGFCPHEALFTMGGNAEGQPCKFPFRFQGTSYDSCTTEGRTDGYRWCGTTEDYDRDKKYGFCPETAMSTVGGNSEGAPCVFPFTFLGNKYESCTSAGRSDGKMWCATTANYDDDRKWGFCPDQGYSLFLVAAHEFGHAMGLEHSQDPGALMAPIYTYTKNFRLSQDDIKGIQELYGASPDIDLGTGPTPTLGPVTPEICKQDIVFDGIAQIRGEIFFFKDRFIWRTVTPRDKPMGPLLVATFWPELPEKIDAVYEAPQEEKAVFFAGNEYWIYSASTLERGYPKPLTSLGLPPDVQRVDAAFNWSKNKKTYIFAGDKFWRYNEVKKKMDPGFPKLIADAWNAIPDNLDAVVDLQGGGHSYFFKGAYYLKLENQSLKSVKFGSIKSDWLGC
Description: Inhibition of Matrix Metalloproteinase-2 (MMP-2)
MMP-2 (gelatinase) is supplied by cultured dermal fibroblasts to the culture medium in considerable amounts and is thus easily accessible.
For this purpose, human dermal fibroblasts are obtained according to established standard methods and cultured and the cell-free culture supernatant is treated with trypsin. Trypsin is then inactivated with a specific inhibitor (TLCK) and active MMP-2 is partially purified by affinity chromatography on gelatin sepharose and subsequent gel filtration on sepharose. MMP-2 was identified and characterized by the availability of a commercial immunoassay.
as §1
The fluorescent group Mca is separated from the internal quencher Dpa by enzymatic cleavage of the synthetic substrate Mca-Pro-Leu-Gly-Leu-Dpa-Ala-Arg-NH2 using the respective collagenase. This is accompanied by a great increase in fluorescence in the measuring batch, which can be quantified using a fluorimeter (λex 328 nm, λem 393 nm) and proceeds linearly within the first few minutes. A certain specificity of the test to matrix metalloproteinases follows from the amino acid sequence -Pro-Leu-Gly-Leu- in the substrate, on the one hand, and from the select incubation conditions, on the other hand. Matrix metalloproteinases cleave the substrate at the Gly-Leu bond. The proteolytic residual activity of pre-incubated batches of enzyme and inhibitor is measured, the substrate and enzyme concentrations having been kept constant and the inhibitor concentration having been varied. Three series of measurements using a different substrate concentration were made for each tested inhibitor.
[…] inhibitor dissolved in DMSO, or DMSO alone (non-inhibitory approach) 4 μl enzyme (MMP-2 or MMP-9 or catalytic domain of MMP-8)
as §3

[2] = biological target: T4, recombinant catalytic domain of MMP-3 (Homo sapiens, UniProt P08254); experiment: Quantitative fluorescence assay for matrix metalloproteinases, MMP-3
T4 construct: Cloning and Expression of the Catalytic Domains of MT1-MMP and MMP-3; made in house; host or cells: Escherichia coli (inclusion bodies, renatured)
From the text: (§4) Cloning and Expression of the Catalytic Domains of MT1-MMP and MMP-3
(§5) Based on the good experience with the use of the catalytic domain of MMP-8 in the kinetic measurements, two more recombinant expressions were established analogously, i.e. that of human membrane type 1 matrix metalloproteinase (MT1-MMP; MMP-14) and that of human MMP-3 (stromelysin-1). Both enzymes are exemplary representatives of subgroups of human matrix metalloproteinases. Both proteins may be renatured stably and in catalytically active form from inclusion bodies of transformed Escherichia coli cells. As in the recombinant MMP-8 thus the subsequent activation of the enzymes is dropped, which improves the reproducibility of the kinetic measurements. The purity of the recombinant enzyme domains was at least 70%.
The cloning and expression of the catalytic domains oriented itself by the following publications: Lichte A., Kolkenbrock H., Tschesche H.: The recombinant catalytic domain of membrane-type matrix metalloproteinase-1 (MT1-MMP) induces activation of progelatinase A and progelatinase A complexed with TIMP-2. […]
as §1, §2, §3

[3] = biological target: T5, recombinant catalytic domain of MT1-MMP (MMP-14) (Homo sapiens, UniProt P50281); experiment: Quantitative fluorescence assay for matrix metalloproteinases, MT1-MMP
T5 construct: Cloning and Expression of the Catalytic Domains of MT1-MMP and MMP-3; made in house; host or cells: Escherichia coli (inclusion bodies, renatured)
From the text: as §4
as §5, with “The purity of the recombinant enzyme domains was at least 70%.” left out
as §1, §2

T2 sequence (P22894 100-262 limits assumed): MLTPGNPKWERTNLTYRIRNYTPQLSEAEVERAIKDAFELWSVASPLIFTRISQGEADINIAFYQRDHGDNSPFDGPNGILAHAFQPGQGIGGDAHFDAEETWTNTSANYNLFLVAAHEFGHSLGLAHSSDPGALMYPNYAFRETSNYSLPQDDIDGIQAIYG
T1 sequence (P14780 107-707 limits assumed): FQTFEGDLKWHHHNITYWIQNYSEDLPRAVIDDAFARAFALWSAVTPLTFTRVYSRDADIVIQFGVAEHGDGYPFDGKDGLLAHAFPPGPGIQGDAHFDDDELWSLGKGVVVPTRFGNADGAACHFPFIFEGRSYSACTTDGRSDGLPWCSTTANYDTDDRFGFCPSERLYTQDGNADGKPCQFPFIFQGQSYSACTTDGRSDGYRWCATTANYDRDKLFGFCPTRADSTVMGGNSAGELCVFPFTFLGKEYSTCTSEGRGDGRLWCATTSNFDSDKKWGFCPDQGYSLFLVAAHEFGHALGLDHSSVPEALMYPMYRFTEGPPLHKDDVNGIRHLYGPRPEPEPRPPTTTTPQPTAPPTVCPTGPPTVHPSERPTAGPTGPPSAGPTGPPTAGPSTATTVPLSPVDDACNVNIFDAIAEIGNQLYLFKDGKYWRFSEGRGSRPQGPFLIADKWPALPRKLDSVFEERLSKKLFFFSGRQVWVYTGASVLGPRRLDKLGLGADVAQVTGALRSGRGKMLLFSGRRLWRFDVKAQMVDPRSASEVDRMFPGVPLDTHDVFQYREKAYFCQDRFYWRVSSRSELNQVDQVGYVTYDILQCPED
T4 sequence (P08254 100-272 limits assumed): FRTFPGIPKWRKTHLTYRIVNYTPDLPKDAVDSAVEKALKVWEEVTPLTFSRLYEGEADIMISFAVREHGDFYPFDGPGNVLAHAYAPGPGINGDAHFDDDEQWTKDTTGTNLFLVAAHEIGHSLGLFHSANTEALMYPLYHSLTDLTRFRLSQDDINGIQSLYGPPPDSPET

`O=c1[nH]c(=O)n(CCC(S)CS)c2ccccc12` (racemic) [Example 3, (R,S)-1-(3′,4′-Dimercapto-but-1′-yl)quinazoline-2,4(1H,3H)dione] showed an MMP-9 inhibition (MMP-9; with 3.5 μM inhibitor) of 50%, an MMP-8 inhibition ([1]; with 3.5 μM inhibitor) of 50% and an MMP-2 inhibition (MMP-2; with 5 μM inhibitor) of 50%. For the same compound, the MMP-3 inhibition ([2]; with 9 μM inhibitor) was 50%.
Work on `O=c1[nH]c(=O)n(CC(S)CS)c2ccccc12` (racemic) [Example 2, (R,S)-1-(2′,3′-Dimercapto-prop-1′-yl)quinazoline-2,4(1H,3H)-dione] yielded an MMP-9 inhibition (MMP-9; with 4 μM inhibitor) of 80%, an MMP-8 inhibition ([1]; with 4 μM inhibitor) of 75% and an MMP-2 inhibition (MMP-2; with 4 μM inhibitor) of 75%. The MMP-3 inhibition ([2]; with 4 μM inhibitor) was 75% and the MT1-MMP inhibition ([3]; with 4 μM inhibitor) was 60%.
`O=c1[nH]c(=O)n(C(CS)CS)c2ccccc12` [Example 1, 1-(1′,3′-Dimercapto-prop-2′-yl)quinazoline-2,4(1H,3H)dione] gave an MMP-9 inhibition (MMP-9; with 10 μM inhibitor) of 60%, an MMP-8 inhibition ([1]; with 10 μM inhibitor) of 70% and an MMP-2 inhibition (MMP-2; with 10 μM inhibitor) of 50%. For the same compound, the MMP-3 inhibition ([2]; with 10 μM inhibitor) was 50% and the MT1-MMP inhibition ([3]; with 10 μM inhibitor) was 30% inhi-.
